Data set [1] has as its system C. albicans (strain SC-5134). The data set can be described thus: XTT reduction metabolic activity assay. Type of data set: cell-based, Candida albicans. As to the method: Metabolic Activity Assay: XTT reduction assays were performed according to the procedure of Chandra et al. Chandra et al., Nature Protocol. 3(12): 1909-2 (2008). Briefly, in the dark, aliquots of 2 ml of cells were treated with 200 nM of Pc 4 in 10% FBS standard growth medium in a 37° C. shaker. The next day, the cells were photoirradiated with red light using a light-emitting diode array (EFOS, Mississauga, Ontario, Canada) at a fluence of 200, 500, 1000 and 2000 mil/cm^2 (1 milliwat/cm^2, ymax ˜670-675 nm) at room temperature. For negative controls, a 2 ml aliquot was not photoirradiated and a 2 ml aliquot simply was loaded overnight with an appropriate amount of N′,N′-dimethylformamide and then photoirridated with the highest fluence the next day. For positive control, either cells were treated with 30% ethanol or 1 uM of Thapsigargin. […] One ml of each treatment condition was used to incubate with XTT (final concentration 1 mg/ml) and menadione (final concentration 1 mM) for 5 hours in the dark and then transferred to 1 ml plastic cuvette for absorbance measurement. Colorimetric changes, which reflect the viability of the cells given different treatment conditions, were measured at 492-nm using a spectrophotometer (Spectronic Genesys™ 5, Analytical Instrument, Golden Valley, Minn., USA). […]
On the technique in general: Formazan colour is commonly taken as a measure of viable cells.

For data set [2] the following is noted: light dose 50 J/cm^2; cited from earlier work.
The subject of data set [3] is T. rubrum. The data set can be described thus: XTT reduction assay after Pc 4-PDT. Type of data set: cell-based, Trichophyton rubrum. As to the method:
Terbinafine sensitive (23013) and resistant (MRL666) strains of T. rubrum were grown onto Sabouraud potato agar plate for at least 24 hours at 28° C. Microconidia were separated from most of the hyphae form before treating with Pc 4-PDT.

The subject of data set [4] is C. albicans (strain SC-5134). Description: FITC-labeled Annexin V staining of protoplasts (phosphatidylserine externalization). Type of data set: cell-based, Candida albicans. The conditions noted are these: 1.0 μM Pc 4-PDT, 2.0 J/cm^2, within 4 to 5 hours of PDT. As to the method:
Cells were then incubated for 4 hr before staining with FITC-labeled Annexin V. FIG. 4(a) provides confocal images of FITC-labeling of cells that had been treated with H2O2 or Pc 4-PDT. Scale bar, 20 μm. FIG. 4(b) provides a bar graph showing the results. For each experiment over 50-100 protoplasts cells were counted per sample. […] Cells were counted by eye using a Zeiss AxiovertTM S100 inverted epifluorescence microscope. Values represent the mean±S.E. from at least three independent experiments. […] Apoptosis Analyses: (A) FITC-labeled Annexin V staining-To assess the externalization of phosphatidylserine, protoplasts of C. albicans were stained with FITC-labeled Annexin V using the Annexin V-FLUOS staining kit (Roche, Germany) with minor modifications. Madeo et al., J Cell Biol 139:729-734 (1997); Park et al., Biochem Biophys Res Commun 394:170-172 (2010). Briefly, control and treated cells were washed three times with 1× PBS before incubating at 37° C. for 30 min in a protoplasting solution (50 mM KH2PO4, 5 mM EDTA and 50 mM DTT). Then cells were digested at 37° C. for 45 min in an enzyme solution (50 mM K2HPO4, 40 mM 2-mercaptoethanol, 3 μg/mL Chitinase, 1.8 μg/mL […], 0.15 mg/mL Zymolyase and 2.4 M sorbitol). 1× PBS was added to each sample and incubated for 30 min at room temperature in all experiments. Protoplasts were then incubated with 100 μL of Annexin V-FLUOS labeling solution for 15 min at 25° C. FITC-labeled Annexin V fluorescence was detected by both widefield (Leica DMI6000B microscope; Leica Microsystems, Inc., Bannockburn, Ill., USA) and confocal fluorescence microscopy.

Take `CN(C)CCC[Si](C)(C)O[Si]1(O)n2c3c4ccccc4c2N=C2N=C(N=c4c5ccccc5c(n41)=NC1=NC(=N3)c3ccccc31)c1ccccc12` (stereo not drawn) [Pc 4, HOSiPcOSi(CH3)2(CH2)3N(CH3)2]: in data set [1] (200 nM Pc 4 + 0.2-2.0 J/cm^2), the “metabolic activity (XTT, percent viability), FIG. 1” value is “impairs fungal metabolic activity”. The “reduction of metabolic activity (XTT)” value in data set [1] (highest Pc 4-PDT dose (1.0 μM, 2.0 J/cm^2), within an hour following photoirradiation) was ~50%. Moreover, the tolerability result in data set [2] was “well-tolerated”. Also, the “metabolic activity (XTT)” value in data set [3] (terbinafine resistant strain MRL666) and in data set [3] (terbinafine sensitive strain 23013) was “attenuates following Pc 4-PDT” in each case. For the same compound, the “Annexin V positive cells” value in data set [4] was 20%.

Source of the values: patent US20120265121A1, “PHTHALOCYANINE-BASED ANTIFUNGAL AGENTS” (CASE WESTERN RESERVE UNIVERSITY, priority 2011, published 2012).
